For 22 compounds, IC50 results are on record in US7605168B2 (Plexxikon, Inc., priority 2004, dated 2009).

Structures are written as SMILES.

Holding throughout (type): biochemical
The target of experiment [1] is T1, PDE4D5: full-length human PDE4D5 isozyme (Homo sapiens, UniProt Q08499).
T1 construct: made in house; host or cells: baculovirus infected insect cells (pFastBacHT)
Description: PDE4 IC50 determination by Scintillation Proximity Assay (SPA), full-length PDE4D5. The settings on record: cell lysate, [3H]cAMP SPA. The protocol:
(§1) The enzyme was not purified from the cell lysates, so enzyme concentrations were not determined. Enzyme was stored in 50% glycerol at −20°.
(§2) IC50s were determined by Scintillation Proximity Assay (SPA). The principle of the assay is based on the fact that cAMP, the PDE4 substrate, binds weakly to Yittrium Silicate SPA beads, whereas AMP, the product of PDE4 hydrolysis binds strongly. Thus, the extent of PDE4 hydrolysis of a sample of [^3H]cAMP can be measured because only the [^3H]AMP produced by PDE4 hydrolysis will bind to the SPA beads and produce a scintillation signal.
(§3) In addition to the compound dilutions, each assay plate contained control wells with 1 μl of DMSO (to define 0% enzyme inhibition) or 1 μl of 200 μM roflumilast (to define 100% enzyme inhibition). Using a Beckman FX robot, 10 μl of [^3H] cAMP (Amersham TRK559) at […] in assay buffer (50 mM Tris, pH 7.5; 8.3 mM MgCl; 1.7 mM EGTA; 0.01% BSA) was transferred to each assay well. Next, 10 μl of PDE4 enzyme in assay buffer was added and the plates were shaken for 30 s. at 1000 rpm to start the cAMP hydrolysis reaction. The concentrations of enzyme used were: PDE4B, 80 ng/ml; PDE4D, 4 ng/ml; PDE4B2, 2.5 μl of 50% glycerol stock/ml; PDE4D5 0.083 μl of 50% glycerol stock/ml. Assay plates were covered and incubated for 30 min. at 30° C. Reactions were stopped by robotic addition of 10 μl of 5 mg/ml SPA beads (Amersham RPNQ0013) in 18 mM ZnSO4. The assay plates were covered with clear plastic film, centrifuged for 1 min. at 1000 RPM to settle the SPA beads, and counted using a Wallac TriLux scintillation counter. IC50's were calculated from the raw assay data by non-linear regression curve fitting using the Assay Explorer software package from MDL.

In experiment [2] the target is T2, PDE4B: catalytic domain of human PDE4B from S152-S528 (Homo sapiens, UniProt Q07343).
T2 construct: The catalytic domain of human PDE4B from S152-S528; His6 (N, cleaved yes); thrombin cleavage site (N, cleaved yes); made in house; host or cells: E. coli BL21 (DE3) RIL
T2 sequence (Q07343 324-700): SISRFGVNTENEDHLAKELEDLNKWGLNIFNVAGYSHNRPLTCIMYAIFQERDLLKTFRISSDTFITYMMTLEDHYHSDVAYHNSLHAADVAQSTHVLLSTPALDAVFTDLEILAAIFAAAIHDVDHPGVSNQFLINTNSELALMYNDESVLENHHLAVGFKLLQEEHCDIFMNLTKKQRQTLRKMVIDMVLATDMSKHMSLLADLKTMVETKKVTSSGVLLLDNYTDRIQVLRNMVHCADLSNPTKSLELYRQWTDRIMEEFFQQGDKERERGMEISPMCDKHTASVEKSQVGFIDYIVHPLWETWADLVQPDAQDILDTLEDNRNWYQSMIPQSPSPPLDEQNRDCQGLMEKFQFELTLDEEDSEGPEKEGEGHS
The experiment can be described thus: PDE4 IC50 determination by Scintillation Proximity Assay (SPA), PDE4B catalytic domain. As to conditions: [3H]cAMP SPA, 30 min at 30° C. The protocol:
as §2
Enzyme was stored in 50% glycerol at −20°.
as §3

The target of experiment [3] is T3, PDE4B2: full-length human PDE4B2 isozyme (Homo sapiens, UniProt Q07343).
T3 construct: made in house; host or cells: baculovirus infected insect cells (pFastBacHT)
T3 sequence (Q07343 with tags, fused parts or gaps isoform Q07343-2): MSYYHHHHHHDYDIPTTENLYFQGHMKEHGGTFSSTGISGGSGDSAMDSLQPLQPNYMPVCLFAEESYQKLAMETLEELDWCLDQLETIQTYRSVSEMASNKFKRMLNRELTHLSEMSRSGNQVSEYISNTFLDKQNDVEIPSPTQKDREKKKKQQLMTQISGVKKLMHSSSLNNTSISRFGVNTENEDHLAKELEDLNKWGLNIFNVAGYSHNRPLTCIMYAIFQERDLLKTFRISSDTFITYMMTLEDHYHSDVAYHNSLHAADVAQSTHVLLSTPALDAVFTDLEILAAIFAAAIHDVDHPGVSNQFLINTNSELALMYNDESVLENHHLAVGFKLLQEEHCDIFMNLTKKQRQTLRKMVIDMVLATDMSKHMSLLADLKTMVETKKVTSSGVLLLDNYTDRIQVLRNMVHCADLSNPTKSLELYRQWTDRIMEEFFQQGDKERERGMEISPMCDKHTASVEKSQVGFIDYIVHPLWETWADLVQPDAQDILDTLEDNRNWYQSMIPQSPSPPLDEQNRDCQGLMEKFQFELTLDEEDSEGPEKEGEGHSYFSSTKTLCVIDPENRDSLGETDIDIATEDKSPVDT
The experiment can be described thus: PDE4 IC50 determination by Scintillation Proximity Assay (SPA), full-length PDE4B2. As to conditions: cell lysate, [3H]cAMP SPA. The protocol: as §1, §2, §3

T1 sequence (Q08499 with tags, fused parts or gaps isoform Q08499-6): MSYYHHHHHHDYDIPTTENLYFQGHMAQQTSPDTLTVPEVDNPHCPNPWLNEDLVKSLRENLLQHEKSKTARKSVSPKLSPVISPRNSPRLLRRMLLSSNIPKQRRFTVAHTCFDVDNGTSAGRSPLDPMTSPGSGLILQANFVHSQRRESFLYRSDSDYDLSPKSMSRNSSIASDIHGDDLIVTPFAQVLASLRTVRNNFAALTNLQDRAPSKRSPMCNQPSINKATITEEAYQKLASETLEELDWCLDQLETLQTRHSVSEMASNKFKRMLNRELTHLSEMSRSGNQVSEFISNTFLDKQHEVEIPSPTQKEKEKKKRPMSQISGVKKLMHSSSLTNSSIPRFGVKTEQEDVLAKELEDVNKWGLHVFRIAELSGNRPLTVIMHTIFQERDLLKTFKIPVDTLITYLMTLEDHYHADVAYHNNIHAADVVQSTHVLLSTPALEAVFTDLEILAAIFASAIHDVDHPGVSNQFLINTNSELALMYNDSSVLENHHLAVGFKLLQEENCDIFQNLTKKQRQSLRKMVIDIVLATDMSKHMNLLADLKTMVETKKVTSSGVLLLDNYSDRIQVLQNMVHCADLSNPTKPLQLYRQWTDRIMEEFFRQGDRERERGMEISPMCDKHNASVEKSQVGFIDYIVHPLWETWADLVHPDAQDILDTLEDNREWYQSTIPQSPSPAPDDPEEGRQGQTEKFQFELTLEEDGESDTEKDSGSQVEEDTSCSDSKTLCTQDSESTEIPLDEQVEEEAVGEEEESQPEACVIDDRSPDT

`COc1ccc(-c2cn(S(=O)(=O)c3ccc(-c4ccccc4)cc3)c3ncccc23)cc1OC` [Compound 10, 1-(Biphenyl-4-sulfonyl)-3-(3,4-dimethoxy-phenyl)-1H-pyrrolo[2,3-b]pyridine]: the IC50 in experiment [1], in experiment [2] and in experiment [3] was less than 10 µM throughout.
For the compound `COc1ccc(-c2cn(S(=O)(=O)c3cccc4cc(C)cnc34)c3ncccc23)cc1OC` [Compound 13, 8-[3-(3,4-Dimethoxy-phenyl)-pyrrolo[2,3-b]pyridine-1-sulfonyl]-3-methyl-quinoline], the IC50 in experiment [1], in experiment [2] and in experiment [3] was less than 10 µM throughout.
On to `COc1ccc(-c2cn(S(=O)(=O)c3ccc(Oc4ccccc4)cc3)c3ncccc23)cc1OC` [Compound 15, 3-(3,4-Dimethoxy-phenyl)-1-(4-phenoxy-benzenesulfonyl)-1H-pyrrolo[2,3-b]pyridine], for which the IC50 in experiment [1], in experiment [2] and in experiment [3] was less than 10 µM in each case.
With `COc1ccc(-c2cn(S(=O)(=O)c3ccccc3)c3ccccc23)cc1OC` [Compound 19, 1-benzenesulfonyl-3-(3,4-dimethoxy-phenyl)-1H-indole], the IC50 in experiment [1], in experiment [2] and in experiment [3] was less than 10 µM throughout.
Turning to `CCOC(=O)c1ccc(NC(=O)n2cc(-c3ccc(OC)c(OC)c3)c3cccnc32)cc1` [Compound 33, 4-[3-(3,4-Dimethoxy-phenyl)-pyrrolo[2,3-b]pyridine-1-carbonyl]-amino-benzoic acid ethyl ester], the IC50 in experiment [1] was more than 10 µM; in experiment [2], less than 10 µM; in experiment [3], less than 10 µM.
Consider `COc1ccc(-c2cn(C(=O)Nc3cccc(F)c3)c3ncccc23)cc1OC` [Compound 35, 3-(3,4-Dimethoxy-phenyl)-pyrrolo[2,3-b]pyridine-1-carboxylic acid(3-fluoro-phenyl)-amide], for which the IC50 in experiment [1], in experiment [2] and in experiment [3] was more than 10 µM each time.
Consider `COc1ccc(NC(=O)n2cc(-c3ccc(OC)c(OC)c3)c3cccnc32)cc1` [Compound 39, 3-(3,4-Dimethoxy-phenyl)-pyrrolo[2,3-b]pyridine-1-carboxylic acid (4-methoxy-phenyl)-amide], for which the IC50 is more than 10 µM in experiment [1], less than 10 µM in experiment [2] and less than 10 µM in experiment [3].
For `COc1ccc(-c2cn(C(=O)Nc3ccc(C(C)=O)cc3)c3ncccc23)cc1OC` [Compound 40, 3-(3,4-Dimethoxy-phenyl)-pyrrolo[2,3-b]pyridine-1-carboxylic acid (4-acetyl-phenyl)-amide], the IC50 in experiment [1], in experiment [2] and in experiment [3] was less than 10 µM in each case.
In the case of `COc1ncc(-c2cn(S(=O)(=O)Cc3ccccc3)c3ncccc23)cn1` [Compound 45, 3-(2-Methoxy-pyrimidin-5-yl)-1-phenylmethanesulfonyl-1H-pyrrolo[2,3-b]pyridine], the IC50 in experiment [1], in experiment [2] and in experiment [3] was less than 10 µM each time.
As for `COc1ccc(-c2c[nH]c3ncccc23)cc1OCc1ccccc1` [Compound 89, 3-(3-Benzyloxy-4-methoxy-phenyl)-1H-pyrrolo[2,3-b]pyridine], the concentration for half-maximal inhibition (IC50) in experiment [1] and in experiment [3] was less than 10 µM each time.
For the compound `COc1ccc2c(c1)c(-c1ccc(OC)c(OC)c1)cn2S(=O)(=O)c1cccc2cc(C)cnc12` [Compound 94, 8-[3-(3,4-Dimethoxy-phenyl)-5-methoxy-indole-1-sulfonyl]-3-methyl-quinoline], the IC50 in experiment [1] and in experiment [3] was less than 10 µM each time.
On to `COc1ccc(-c2cn(C(=O)Nc3ccc(F)c([N+](=O)[O-])c3)c3ncccc23)cc1OC1CCCC1` [Compound 98, 3-(3-Cyclopentyloxy-4-methoxy-phenyl)-pyrrolo[2,3-b]pyridine-1-carboxylic acid (3-nitro-4-fluoro-phenyl)-amide], for which the IC50 in experiment [1] and in experiment [3] was less than 10 µM in each case.
As to `COc1ccc(-c2cn(C(=O)c3ccc(Cl)nc3)c3ncccc23)cc1OC` [Compound 107, (6-Chloro-pyridin-3-yl)-[3-(3,4-dimethoxy-phenyl)-pyrrolo[2,3-b]pyridin-1-yl]-methanone], the IC50 in experiment [1] and in experiment [3] was less than 10 µM throughout.
As for `COc1ccc(-c2cn(C(=O)[C@@H]3C[C@H]3c3ccccc3)c3ncccc23)cc1OC` [Compound 108, [3-(3,4-Dimethoxy-phenyl)-pyrrolo[2,3-b]pyridin-1-yl]-((1R,2R)-2-phenyl-trans-cyclopropyl)-methanone], the IC50 in experiment [1] and in experiment [3] was less than 10 µM throughout.
`COc1ccc(-c2cn(C(=O)c3ccccc3Oc3ccccc3)c3ncccc23)cc1OC` [Compound 118, [3-(3,4-Dimethoxy-phenyl)-pyrrolo[2,3-b]pyridin-1-yl]-(2-phenoxy-phenyl)-methanone]: the IC50 in experiment [1] and in experiment [3] was less than 10 µM each time.
For `CCOc1ccc2ccccc2c1C(=O)n1cc(-c2cccc(C(=O)OC)c2)c2cccnc21` [Compound 120, 3-[1-(2-Ethoxy-naphthalene-1-carbonyl)-1H-pyrrolo[2,3-b]pyridin-3-yl]-benzoic acid methyl ester], the IC50 in experiment [1] and in experiment [3] was less than 10 µM throughout.
For the compound `CCOc1ccc2ccccc2c1C(=O)n1cc(-c2ccc(O)c(OC)c2)c2cccnc21` [Compound 123, (2-Ethoxy-naphthalen-1-yl)-[3-(4-hydroxy-3-methoxy-phenyl)-pyrrolo[2,3-b]pyridin-1-yl]-methanone], the IC50 in experiment [1] and in experiment [3] was less than 10 µM in each case.
As for `COc1cc(-c2cn(S(=O)(=O)c3ccccc3)c3ncccc23)ccc1OCc1cc(-c2ccccc2)no1` [Compound 125, 1-Benzenesulfonyl-3-[3-methoxy-4-(3-phenyl-isoxazol-5-ylmethoxy)-phenyl]-1H-pyrrolo[2,3-b]pyridine], the IC50 in experiment [1] and in experiment [3] was less than 10 µM in each case.
Regarding `CCOC(=O)c1ccc(C#Cc2cn(S(=O)(=O)c3ccccc3)c3ncc(-c4ccc(OC)c(OC)c4)cc23)cc1` [Compound 135, 4-[1-Benzenesulfonyl-5-(3,4-dimethoxy-phenyl)-1H-pyrrolo[2,3-b]pyridin-3-ylethynyl]-benzoic acid ethyl ester], in experiment [3], the IC50 is less than 10 µM.
In the case of `COc1ccc(-c2cnc3c(c2)c(C#Cc2ccccc2)cn3S(=O)(=O)c2ccccc2)cc1OC` [Compound 136, 1-Benzenesulfonyl-5-(3,4-dimethoxy-phenyl)-3-phenylethynyl-1H-pyrrolo[2,3-b]pyridine], the IC50 in experiment [1] and in experiment [3] was less than 10 µM each time.
For `COC(=O)c1cccc(C#Cc2cn(S(=O)(=O)c3ccccc3)c3ncc(-c4ccc(OC)c(OC)c4)cc23)c1` [Compound 137, 3-[1-Benzenesulfonyl-5-(3,4-dimethoxy-phenyl)-1H-pyrrolo[2,3-b]pyridin-3-ylethynyl]-benzoic acid methyl ester], the concentration for half-maximal inhibition (IC50) in experiment [1] and in experiment [3] was less than 10 µM throughout.
As for `COc1ccc(-c2cn(S(=O)(=O)c3ccccc3)c3ncccc23)cc1O` [Compound 141, 5-(1-Benzenesulfonyl-1H-pyrrolo[2,3-b]pyridin-3-yl)-2-methoxy-phenol], the IC50 in experiment [1] and in experiment [3] was less than 10 µM each time.
